Measurements published in patent US7951819B2, “Imidazo[4, 5-B]pyridin-2-one and oxazolo[4, 5-B] pyridin-2-one compounds and analogs thereof as cancer therapeutic compounds” (Cancer Research Technology Limited, priority 2006, dated 2011).

What was measured:
[1] = target: T1, V600E B-RAF (Homo sapiens, UniProt P15056, V600E); assay: BRAF V600E Kinase Assay; assay type: biochemical
T1 construct: MDRGSH6 (MDRGS-His6) (N); made in house; host or cells: SF9 insect cells (detergent soluble extract / lysate, not purified)
Method: B-raf kinase activity is measured using a 4-tiered cascade enzyme assay similar to that described by Marais R., et al., 1997, J. Biol. Chem., Vol. 272, pp. 4378-4383. B-Raf containing the V600E mutation (Davies, H., et al., 2002, Nature, Vol. 417, pp. 949-954) and an N-terminal MDRGSH6 tag is expressed in SF9 insect cells. Detergent soluble extracts from these cells are diluted 1:100 into an assay mixture containing GST-MEK-H6 (6.5 μg/ml) and GST-ERK-H6 (100 μg/ml) in a buffer containing 800 μM ATP and appropriate concentrations of inhibitor or diluent as control. The mixture is incubated for up to 10 minutes at 30° C. to activate the ERK in a B-Raf dependent manner within the cascade. […] The extent of activation of the GST-ERK is then determined by adding a portion of this quenched reaction mixture to a further reaction mixture containing MBP and 100 μM ATP/gamma [^32P]ATP. After 12 minutes' incubation at 30° C., the incorporation of [^32P] into the MBP substrate, as a measure of B-raf activity, is determined by precipitation with phosphoric acid and isolation by filtration on p81 phosphocellulose paper. […]
Alternatively, B-raf kinase activity is measured using a different 4-tiered cascade enzyme assay. […] The extent of activation of the GST-ERK is then determined by adding 0.033 μL (100 μM) HOT ^32Pα. […]
Compounds were assessed by a kinase assay performed according to the following protocol. […]

[2] = system: ppERK; assay: Phospho-ERK Cell-based Assay; conditions: cells incubated with test compound for 6 hours
Method: Compounds were assessed using cell-based assays which were performed according to the following protocol.
Plate out 16,000 cells/well in 99 μL medium in a 96-well plate.
2. Incubate the cells with test compound for 6 hours at 37° C.
5. Add 50 μL of 3 μg/mL primary antibody ppERK (Sigma M8159), diluted in 5% milk powder/TBS, to each well.
13. Read Europium Time Resolved Fluorescence in Victor2.
Note that Europium counts are normalised for protein levels by dividing counts by absorbance.

[3] = system: WM266.4 melanoma cells; assay: Cell proliferation (SRB) assay; assay type: cell-based; conditions: Homo sapiens, WM 266-4, 144 h, 6 days growth
Method: Cultures of WM266.4 melanoma cells are routinely cultured in DMEM/10% foetal bovine serum, at 37° C., in 5% CO2 water saturated atmosphere. Cultures are maintained in exponential growth phase by sub-culturing before having become confluent (3-5 day intervals). Single cell suspensions are prepared by harvesting an 80 cm^2 tissue culture flask with 5 mL commercial trypsin EDTA. After 5 minutes, the detached cells are mixed with 5 mL fully complemented culture medium and centrifugally pelleted (1000 rpm for 7 minutes). After aspirating the supernatant, the cell pellet is re-suspended in 10 mL fresh medium and the cells fully disaggregated by drawing the whole volume up/down 5 times through a 19-gauge needle. The concentration of the cells is determined using a haemocytometer (1/10 dilution). A suitable volume to give at least a 2-fold excess for the number of tests being conducted, typically 100-200 mL, is prepared by diluting the cell suspension to 10,000/mL, and 100 μL/well dispensed into 96 well plates using a programmable 8-channel peristaltic pump, giving 1000 cells/well, leaving column 12 blank. […] The absorbance at 540 nm in each well (being proportional to the number of cells present) is determined using a plate reader. After averaging the results in rows A-D and E-H, the blank value ([…]) is subtracted, and results expressed as percentage of the untreated value (row 11). […]

T1 sequence (P15056 whole entry V600E): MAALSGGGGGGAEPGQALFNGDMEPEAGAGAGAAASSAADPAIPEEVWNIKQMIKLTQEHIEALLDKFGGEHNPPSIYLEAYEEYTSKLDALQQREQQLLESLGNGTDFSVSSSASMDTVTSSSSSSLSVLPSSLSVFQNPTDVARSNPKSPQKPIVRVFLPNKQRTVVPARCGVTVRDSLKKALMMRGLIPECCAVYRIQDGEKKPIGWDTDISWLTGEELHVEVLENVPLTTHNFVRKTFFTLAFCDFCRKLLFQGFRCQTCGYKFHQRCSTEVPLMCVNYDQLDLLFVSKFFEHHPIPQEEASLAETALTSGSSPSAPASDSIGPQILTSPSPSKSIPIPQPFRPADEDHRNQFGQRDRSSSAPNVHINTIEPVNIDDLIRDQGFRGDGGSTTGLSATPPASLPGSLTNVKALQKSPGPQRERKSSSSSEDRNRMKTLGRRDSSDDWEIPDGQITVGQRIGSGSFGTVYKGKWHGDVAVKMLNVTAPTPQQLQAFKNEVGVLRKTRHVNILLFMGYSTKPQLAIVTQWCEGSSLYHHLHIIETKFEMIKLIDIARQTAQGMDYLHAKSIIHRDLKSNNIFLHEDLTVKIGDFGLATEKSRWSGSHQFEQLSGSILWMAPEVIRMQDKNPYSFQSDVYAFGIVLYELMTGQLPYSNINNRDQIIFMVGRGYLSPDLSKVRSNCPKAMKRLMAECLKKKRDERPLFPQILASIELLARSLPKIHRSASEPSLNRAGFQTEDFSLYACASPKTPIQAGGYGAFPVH

## O=C(Nc1cccc(Oc2ccnc3[nH]c(=O)[nH]c23)c1)Nc1ccc(Cl)c(C(F)(F)F)c1 [CJS 3678, 1-(4-Chloro-3-(trifluoromethyl)phenyl)-3-(3-(2-oxo-2,3-dihydro-1H-imidazo[4,5-b]pyridin-7-yloxy)phenyl)urea]
[1]
  IC50: 0.015 µM
[2]
  IC50: 10.7 µM
[3]
  IC50: 4.2 µM
